From patent publication US11938114B2, “Bacterial efflux pump inhibitors” (priority 2017, dated 2024)
Structures can show the parent of a compound that is named as a salt. Marks after values point to notes of the source that are not given here.

How the values were obtained:
[1] = test system: Escherichia coli ATC 25922; test: Bacterial EPI assay: MIC of clarithromycin in the presence of EPI; format: cell-based; conditions: clarithromycin as antibiotic
Description: (§1) MIC assays were conducted in accordance with Clinical and Laboratory Standards Institute (CLSI) guidelines for broth microdilution.
(§2) The EPI assay for the purposes of these studies represents a MIC assay in which the MIC of the antibiotic against the bacteria is tested in the presence of an experimental efflux pump inhibitor (EPI). […] Using serial dilutions of the EPI, its enhancement of antibiotic activity was then evaluated. […] For the evaluation of the efficacy of an EPI against bacteria that were pre-exposed to an antibiotic, the inoculum of bacteria that used was developed from a bacterial culture isolated as a single colony following exposure at […] the MIC of the antibiotic (so as to induce efflux pump expression), was to be used in combination with the EPI.
(§3) The MIC of the test antibiotic is determined in the absence and presence of sub-inhibitory concentrations of the EPI. Initially, the sub-inhibitory concentration used was ½×MIC of the EPI. […] Similar methodology was employed to examine the synergy with Escherichia coli ATCC 25922 in the presence of varied concentrations of these EPIs using clarithromycin as the antibiotic.

P. aeruginosa ATCC 27853 [2] = test: Standard EPI assay: MIC of test antibiotic (levofloxacin, cefepime) in absence and presence of EPI; format: cell-based, Pseudomonas aeruginosa; conditions: for Enhanced Activity in P. aeruginosa (fold enhancement of antibiotic activity): levofloxacin as antibiotic, Pseudomonas aeruginosa ATCC 27853
Description: as §1, §2, §3

P. aeruginosa ATCC 27853 [3] = test: Intrinsic MIC assay (CLSI broth microdilution); format: cell-based; conditions: Pseudomonas aeruginosa, ATCC27853, read-out: intrinsic MIC of the EPI
Description: as §1
The intrinsic MIC of the experimental EPIs was tested with the method described. The 2-fold serial dilution begin with 100 μg/mL of tested compound in the first column of the 96-well plates.
The following Gram-negative bacterial strains were included in these assays: • Escherichia coli ATCC 25922 • Klebsiella pneumoniae ATCC 13883 and ATCC 10031 • Pseudomonas aeruginosa ATCC 27853. • Acinetobacter baumannii ATCC 19606 Bacterial EPI Assays Tier 1 Testing

[4] = test system: P. aeruginosa ATCC 27853 pre-exposed to cefepime; test: Pre-exposure bacterial EPI assay; format: cell-based, Pseudomonas aeruginosa
Description: as §2
The principle underlying this pre-exposure is that exposure of the bacteria to sub-inhibitory concentrations of the test antibiotic will induce expression of efflux pumps, if any, and may represent the scenario in vivo more accurately.

[5] = test system: P. aeruginosa [ATCC 27853]; test: Mouse septicemia model of infection; format: in vivo, Pseudomonas aeruginosa; conditions: mice, Experiment #489, cefepime, 10 mg/ml b.i.d.
Description: A general method for the in vivo assessment of bacterial EPIs is complicated by the fact that that both the antibiotic and the EPI need to be present for synergy to be achieved. A general method was discovered that has proven to be effective in establishing the relative efficacy of bacterial EPIs in a mouse septicemia model. The bacterial EPI is administered initially intravenously to mice with septicemia, followed 5 minutes later by the intravenous administration or oral administration of the antibiotic. A second administration of the EPI is then administered subcutaneously after an additional 5 minutes to act as a booster, followed by the final administration of the antibiotic either intravenously or orally after the second administration of the EPI. […] In a few instances, a second regiment of both EPI and antibiotic as administered on day 1 was required after 24 hours to affect cures.
Determination of the in vivo efficacy of bacterial efflux pump inhibitors (EPIs) can be efficiently determined using a mouse septicemia model of infection. The systemic infection is initiated by a 500 ul intraperitoneal injection of an inoculum containing bacteria (such as P. aeruginosa [ATCC 27853]) at a concentration of approximately 5×10^5 cells in 5% mucin in Swiss Webster female mice. […]

[6] = P. aeruginosa ATCC 27853, 6.25 μg/mL of the EPI

For NC[C@@H]1C[C@H](Oc2cc(-c3ccc(F)cc3)cc(-c3ccc(F)cc3)c2)CN1 [Example 8, ((2S,4S)-4-((4,4″-difluoro-[1,1′:3′,1″-terphenyl]-5′-yl)oxy)pyrrolidin-2-yl)methanamine], the “Enhanced Activity in E. coli (fold enhancement of antibiotic activity)” value ([1]; EPI at 6.25 μg) was 2x/6.25 μg and the “Enhanced Activity in P. aeruginosa (fold enhancement of antibiotic activity)” value (P. aeruginosa ATCC 27853 [2]; EPI at 12.5 μg) was 1x/12.5 μg.

In the case of Cl.Cl.NC[C@@H]1CN[C@H](COc2cc(-c3ccc(F)cc3)cc(-c3ccc(F)cc3)c2)C1 [Example 6, ((3R,5S)-5-(((4,4″-difluoro-[1,1′:3′,1″-terphenyl]-5′-yl)oxy)methyl)pyrrolidin-3-yl)methanamine dihydrochloride], the “Enhanced Activity in E. coli (fold enhancement of antibiotic activity)” value ([1]; EPI at 3.125 μg) is reported as 32x/3.125 μg and the “Enhanced Activity in P. aeruginosa (fold enhancement of antibiotic activity)” value (P. aeruginosa ATCC 27853 [2]; EPI at 6.25 μg) is reported as 1x/6.25 μg.

With CN1C[C@H](CN)C[C@H]1CNC(=O)c1cc(-c2ccc(F)cc2)cc(-c2ccc(F)cc2)c1 [Example 11, N-(((2S,4S)-4-(aminomethyl)-1-methylpyrrolidin-2-yl)methyl)-4,4″-difluoro-[1,1′:3′,1″-terphenyl]-5′-carboxamide hydrochloride salt] the “Enhanced Activity in E. coli (fold enhancement of antibiotic activity)” value ([1]; EPI at 6.25 μg) was 128x/6.25 μg.

For Cl.Cl.NC[C@@H]1CN[C@H](CNC(=O)c2cc(-c3ccc(F)cc3)cc(-c3ccc(F)cc3)c2)C1 [Example 4, N-(((2S,4R)-4-(aminomethyl)pyrrolidin-2-yl)methyl)-4,4″-difluoro-[1,1′:3′,1″-terphenyl]-5′-carboxamide dihydrochloride], the “Enhanced Activity in E. coli (fold enhancement of antibiotic activity)” value ([1]; EPI at 3.125 μg) was 512x/3.125 μg, the “MIC of levofloxacin in the presence of EPI” value (P. aeruginosa ATCC 27853 [2]; P. aeruginosa ATCC 27853, 6.25 μg/mL (½×MIC) of the EPI) was 0.016 µg/mL and the “MIC of cefepime in the presence of EPI” value (P. aeruginosa ATCC 27853 [2]; [6]) was 0.125 µg/mL. The “decrease of the MIC of cefepime relative to absence of EPI” value (P. aeruginosa ATCC 27853 [2]; [6]) was 16 fold, the “reduction of the MIC of levofloxacin relative to absence of EPI” value (P. aeruginosa ATCC 27853 [2]; [6]) was 64 fold and the “Enhanced Activity in P. aeruginosa (fold enhancement of antibiotic activity)” value (P. aeruginosa ATCC 27853 [2]; EPI at 6.25 μg) was 64x/6.25 μg. The MIC (P. aeruginosa ATCC 27853 [3]) was 12.5 µg/mL, the “MIC of cefepime against cefepime-exposed P. aeruginosa in the presence of EPI” value ([4]; 6.25 μg/mL of the EPI) was 0.25 µg/mL and the “reduction of MIC of cefepime against cefepime-exposed P. aeruginosa” value ([4]; 6.25 μg/mL of the EPI) was 64 fold. For the same compound, the “% Survival (72 hr) Antibiotic + EPI” value ([5]; 250 ul + Example 4, 2.0 mg/ml b.i.d.) was 100%.

For Cl.Cl.NC[C@H]1CN[C@H](COc2cc(-c3ccc(F)cc3)cc(-c3ccc(F)cc3)c2)C1 [Example 7], the “Enhanced Activity in E. coli (fold enhancement of antibiotic activity)” value ([1]; EPI at 3.125 μg) was 64x/3.125 μg and the “Enhanced Activity in P. aeruginosa (fold enhancement of antibiotic activity)” value (P. aeruginosa ATCC 27853 [2]; EPI at 6.25 μg) was 2x/6.25 μg.

For Cl.Cl.NC[C@H]1CN[C@H](CNC(=O)c2cc(-c3ccc(F)cc3)cc(-c3ccc(F)cc3)c2)C1 [Example 5, N-(((2S,4S)-4-(aminomethyl)pyrrolidin-2-yl)methyl)-4,4″-difluoro-[1,1′:3′,1″-terphenyl]-5′-carboxamide dihydrochloride], the “Enhanced Activity in E. coli (fold enhancement of antibiotic activity)” value ([1]; EPI at 6.25 μg) was 1024x/6.25 μg and the “Enhanced Activity in P. aeruginosa (fold enhancement of antibiotic activity)” value (P. aeruginosa ATCC 27853 [2]; EPI at 6.25 μg) was 32x/6.25 μg.

With CC(C)(C(=O)NC[C@@H]1C[C@H](CN)CN1)c1cc(-c2ccc(F)cc2)cc(-c2ccc(F)cc2)c1 [Example 10, N-(((2S,4R)-4-(aminomethyl)pyrrolidin-2-yl)methyl)-2-(4,4″-difluoro-[1,1′:3′,1″-terphenyl]-5′-yl)-2-methylpropanamide hydrochloride salt] the “Enhanced Activity in E. coli (fold enhancement of antibiotic activity)” value ([1]; EPI at 6.25 μg) was 512x/6.25 μg.

Cl.Cl.NC[C@@H]1CNC(CNC(=O)c2cc(-c3ccc(C(F)(F)F)cc3)cc(-c3ccc(C(F)(F)F)cc3)c2)C1 (stereo in doubt) [Example 9, N-(((2R,4R)-4-(Aminomethyl)pyrrolidin-2-yl)methyl)-4,4″-bis(trifluoromethyl)-[1,1′:3′,1″-terphenyl]-5′-carboxamide hydrochloride salt] was tested, and the “Enhanced Activity in P. aeruginosa (fold enhancement of antibiotic activity)” value (P. aeruginosa ATCC 27853 [2]; EPI at 12.5 μg) was 4x/12.5 μg.

For CNC[C@@H]1CN[C@H](CNC(=O)c2cc(-c3ccc(F)cc3)cc(-c3ccc(F)cc3)c2)C1 [Example 14, 4,4″-difluoro-N-(((2S,4R)-4-((methylamino)methyl)pyrrolidin-2-yl)methyl)-[1,1′:3′,1″-terphenyl]-5′-carboxamide hydrochloride salt], the “Enhanced Activity in E. coli (fold enhancement of antibiotic activity)” value ([1]; EPI at 6.25 μg) was 64x/6.25 μg and the “Enhanced Activity in P. aeruginosa (fold enhancement of antibiotic activity)” value (P. aeruginosa ATCC 27853 [2]; EPI at 12.5 μg) was 32x/12.5 μg.

For CC(C)(N)C1CN[C@H](CNC(=O)c2cc(-c3ccc(F)cc3)cc(-c3ccc(F)cc3)c2)C1.Cl.Cl (stereo partly drawn) [Example 3, N-(((2S)-4-(2-aminopropan-2-yl)pyrrolidin-2-yl)methyl)-4,4″-difluoro-[1,1′:3′, 1″-terphenyl]-5′-carboxamide dihydrochloride], the “Enhanced Activity in E. coli (fold enhancement of antibiotic activity)” value ([1]; EPI at 12.5 μg) was 1024x/12.5 μg and the “Enhanced Activity in P. aeruginosa (fold enhancement of antibiotic activity)” value (P. aeruginosa ATCC 27853 [2]; EPI at 12.5 μg) was 32x/12.5 μg.

In the case of CC(C)(C(=O)NC[C@@H]1C[C@H](N)CN1)c1cc(-c2ccc(F)cc2)cc(-c2ccc(F)cc2)c1.Cl.Cl [Example 2], the “Enhanced Activity in E. coli (fold enhancement of antibiotic activity)” value ([1]; EPI at 6.25 μg) is reported as 8x/6.25 μg.

CN(C)C[C@H]1CN[C@H](CNC(=O)c2cc(-c3ccc(F)cc3)cc(-c3ccc(F)cc3)c2)C1 [Example 12, N-(((2S,4R)-4-((dimethylamino)methyl)pyrrolidin-2-yl)methyl)-4,4″-difluoro-[1,1′:3′,1″-terphenyl]-5′-carboxamide hydrochloride salt] was tested, and the “Enhanced Activity in E. coli (fold enhancement of antibiotic activity)” value ([1]; EPI at 25 μg) was 2x/25 μg.

In the case of CO/N=C(\C(=O)N[C@@H]1C(=O)N2C(C(=O)[O-])=C(C[N+]3(C)CCCC3)CS[C@H]12)c1csc(N)n1 [cefepime, reference compound], the “increase of MIC of cefepime against pre-exposed versus unexposed P. aeruginosa” value ([4]; pre-exposed to cefepime, no EPI) is reported as 8 fold and the “% Survival (72 hr) Antibiotic Only” value ([5]; 250 ul) is reported as 0%****.

For Cl.Cl.N[C@@H]1CN[C@H](CNC(=O)c2cc(-c3ccc(F)cc3)cc(-c3ccc(F)cc3)c2)C1 [Example 1, N-(((2S, 4S)-4-aminopyrrolidin-2-yl)methyl)-4,4″-difluoro-[1, 1′:3′, 1′-terphenyl]-5′-carboxamide dihydrochloride], the “Enhanced Activity in E. coli (fold enhancement of antibiotic activity)” value ([1]; EPI at 6.25 μg) was 64x/6.25 μg and the “Enhanced Activity in P. aeruginosa (fold enhancement of antibiotic activity)” value (P. aeruginosa ATCC 27853 [2]; EPI at 6.25 μg) was 2x/6.25 μg.
